From US7943797B2, “Products for the treatment of the iron chlorosis” (Tradecorp, S.A., priority 2006, dated 2011)

Legend:
[1] = system: Soybean plants (Glycine max L. cv. Stine 0480) with induced Fe chlorosis; assay: Efficacy of Fe chelates to provide Fe to soybean plants in hydroponics: SPAD index; format: in vivo; details: for Regreening of plants (SPAD index): 20 days after treatment, regardless of the doses (5 and 10 μM)
Protocol: (§1) Soybean seeds (Glycine max L. cv. Stine 0480) were germinated at 30° C. and 60% RH on paper moistened with 1 M CaSO4 in dark for 2 days. Afterwards, seedlings were placed in 10 L containers (50 seedlings per container) filled with a 1/5 diluted EDTA buffered nutrient solution (macronutrients (mM)—1.0 Ca(NO3)2, 0.9 KNO3, 0.3 MgSO4, 0.1 KH2PO4; cationic micronutrients (μM)—5.0 EDTA/Fe^3+, 2.5 MnSO4, 1.0 CuSO4, 10 ZnSO4, 1.0 CoSO4, 1.0 NiCl2, 115.5 Na2EDTA; anionic micronutrients (μM)-35 NaCl, 10 H3BO3, 0.05 Na2MoO4; 0.1 mM HEPES) for 6 days. On the 7th day, in order to induce Fe chlorosis, seedlings were transferred to 12 L polypropylene buckets containing aerated full strength EDTA buffered nutrient solution but without Fe^3+-chelate. Plants were grown under these conditions until clear symptoms of Fe deficiency were observed (7 days) and then plants were placed in 2 L pots (6 plants per pot) covered with black plastic to avoid light exposure. The effect of different Fe chelates and doses were compared as Fe sources. Chelates used in the treatments were o,o-EDDHA/Fe^3+, o,p-EDDHA/Fe^3+, EDTA/Fe^3+ and Example 1/Fe^3+. The last one is the Fe chelate of the compound of the example 1: 2-(2-((2-hydroxybenzyl)amino)ethylamino)-2-(2-hydroxyphenyl)acetic acid (DCHA). Nutrient solution contained macronutrients and anionic micronutrients as for the seedling period and the following cationic micronutrients composition: (μM) 1.0 MnSO4, 0.5 CuSO4, 0.5 ZnSO4, 0.1 NiCl2 and 0.1 CoSO4. Also, 1 g·L^−1 of CaCO3 was added to the nutrient solution to buffer pH at 7.5 and to simulate conditions of a calcareous soil. Plants were grown for 21 days in this nutrient solution in a growth chamber provided with fluorescent and sodium vapour lamps with a 16 h/30° C. and 50% humidity day and 8 h/25° C. and 70% humidity night regime. Water was added every 2 days and the nutrient solution was renewed every 7 days. Treatments were replicated four times in a completely randomised design. Plants were harvested after 7, 14 and 21 days.
(§2) During the experiment, SPAD readings with a chlorophyll-meter (Minolta SPAD-502) were taken for all leaf stages (average of two or three readings per stage) every second day. Only values measured for the youngest fully open leaves (the 2nd stage at the 2nd day, the third at the 10th day and the fourth at the 20th day) are here presented (Table 1)

[2] = system: Soybean plants (Glycine max L. cv. Stine 0480) with induced Fe chlorosis; assay: Efficacy of Fe chelates to provide Fe to soybean plants in hydroponics: Fe content in plants; format: in vivo
Protocol: as §1
Root and shoot were separated and washed using Tween 80 (Merck) and HCl solution and fresh and dry (after oven dry procedure) weights were determined. Samples were ground and after dry digestion in a muffle furnace (480° C.), ashes are dissolved in HCl. Fe, Mn, Cu and Zn were analysed by atomic absorption spectrometry.

[3] = system: Soybean plants (Glycine max L. cv. Stine 0480) with induced Fe chlorosis; assay: Efficacy of Fe chelates to provide Fe to soybean plants in soil conditions: SPAD index; format: in vivo; details: for SPAD index / Recovery from chlorosis (SPAD): calcareous soil; for Recovery from chlorosis (SPAD): two days after the treatment application
Protocol: (§3) Soybean seeds (Glycine max L. cv. Stine 0480) were germinated at 30° C. and 60% RH on paper moistened with 1 M CaSO4 in dark for 2 days. Afterwards, seedlings were placed in 10 L containers (50 seedlings per container) filled with a 1/5 diluted EDTA buffered nutrient solution (macronutrients (mM)—1.0 Ca(NO3)2, 0.9 KNO3, 0.3 MgSO4, 0.1 KH2PO4; cationic micronutrients (μM)—5.0 EDTA/Fe^3+, 2.5 MnSO4, 1.0 CuSO4, 10 ZnSO4, 1.0 CoSO4, 1.0 NiCl2, 115.5 Na2EDTA; anionic micronutrients (μM)—35 NaCl, 10 H3BO3, 0.05 Na2MoO4; 0.1 mM HEPES) for 4 days. Then, in order to induce Fe chlorosis, nutrient solution without iron was used for two more days and then plants were transplanted in 1 L pots (3 plants per pot) containing 700 g of a calcareous soil ([…] calcium carbonate, 89 g·Kg^−1 CaCO3 active, pH 7.70) and 300 g of lime sand covered with black plastic to avoid light exposure. The effect of different Fe chelates were compared as Fe sources: o,o-EDDHA/Fe^3+, o,p-EDDHA/Fe^3+, EDTA/Fe^3+ and Example 1/Fe^3+. The last one is the Fe chelate of the compound of the example 1: 2-(2-((2-hydroxybenzyl)amino)ethylamino)-2-(2-hydroxyphenyl)acetic acid. Plants were grown for 21 days in this soil conditions in a growth chamber provided with fluorescent and sodium vapour lamps with a 16 h/30° C. and 50% humidity day and 8 h/25° C. and 70% humidity night regime. Treatments were replicated five times in a completely randomised design. Single plants were harvested after 2, 7 and 21 days.
as §2, with “Values” for “Only values”, “the” for “the youngest fully open leaves (the”, “12th” for “10th”, “fourth and fifth” for “fourth”, “22th” for “20th”, “4).” for “1)”

[4] = system: Soybean plants (Glycine max L. cv. Stine 0480) with induced Fe chlorosis; assay: Efficacy of Fe chelates in soil conditions: shoot dry weight and Fe concentration in leaves; format: in vivo; details: calcareous soil, three sampling times
Protocol: as §3, with “Plants were grown for 21 days in this soil conditions in a growth chamber provided with fluorescent and sodium vapour lamps with a 16 h/30° C. and 50% humidity day and 8 h/25° C. and 70% humidity night regime. Treatments were replicated five times in a completely randomised design. Single plants were harvested after 2, 7 and 21 days.” left out
In each sampling time shoots were separated and washed using Tween 80 (Merck) and HCl solution and fresh and dry (after oven dry procedure) weights were determined. […] Fe, Mn, Cu and Zn were analysed by atomic absorption spectrometry.

[5] = compared with o,o-EDDHA/Fe^3+; Yunta et al. 2003; cited from earlier work
[6] = 5 μM chelate, 2 days after treatment (2nd stage)
[7] = 5 μM chelate, 10 days after treatment (3rd stage)
[8] = 5 μM chelate, 20 days after treatment (4th stage)
[9] = 10 μM chelate, 2 days after treatment (2nd stage)
[10] = 10 μM chelate, 10 days after treatment (3rd stage)
[11] = 10 μM chelate, 20 days after treatment (4th stage)
[12] = 5 μM chelate (low dose), 1st sampling 7 days after treatment
[13] = 5 μM chelate (low dose), 2nd sampling 14 days after treatment
[14] = 5 μM chelate (low dose), 3rd sampling 21 days after treatment
[15] = 10 μM chelate (high dose), 1st sampling 7 days after treatment
[16] = 10 μM chelate (high dose), 2nd sampling 14 days after treatment
[17] = 10 μM chelate (high dose), 3rd sampling 21 days after treatment
[18] = 2 days after treatment (2nd stage)
[19] = 12 days after treatment (3rd stage)
[20] = 22 days after treatment (4th stage)
[21] = 22 days after treatment (5th stage)

Compound	SPAD index [1, 6]	SPAD index [1, 7]	SPAD index [1, 8]	SPAD index [1, 9]	SPAD index [1, 10]	SPAD index [1, 11]	Regreening of plants (SPAD index) [1]	Fe content [2, 12]	Fe content [2, 13]	Fe content [2, 14]	Fe content [2, 15]	Fe content [2, 16]	Fe content [2, 17]	SPAD index [3, 18]	SPAD index [3, 19]	SPAD index [3, 20]	SPAD index [3, 21]	Recovery from chlorosis (SPAD) [3]	also measured
O=C([O-])C(NCCNC(C(=O)[O-])c1ccccc1[O-])c1ccccc1[O-].[Fe+3] (stereo not shown) [o,o-EDDHA/Fe^3+]	6.2 cd	26.7 b	30.2 a	9.1 ab	31.6 ab	32.4 a	completely regreened	26.0 bc μg Fe per plant	83.6 b μg Fe per plant	202 b μg Fe per plant	61.4 a μg Fe per plant	129 a μg Fe per plant	254 a μg Fe per plant	22.4	42.1	34.1	28.8		
O=C([O-])CN(CCN(CC(=O)[O-])CC(=O)[O-])CC(=O)[O-].[Fe+3] [EDTA/Fe^3+]	6.8 bcd	6.9 days	11.4 c	8.1 abc	16.6 c	19.9 b		14.2 c μg Fe per plant	19.6 c μg Fe per plant	22.6 c μg Fe per plant	27.7 b μg Fe per plant	32.6 b μg Fe per plant	47.6 b μg Fe per plant						
O=C(O)C(NCCNCc1ccccc1O)c1ccccc1O (stereo not shown) [Example 1, 2-(2-((2-hydroxybenzyl)amino)ethylamino)-2-(2-hydroxyphenyl)acetic acid]							completely regreened												Speed of action to correct iron chlorosis ([1]; low doses, similar to o,p-EDDHA, higher than o,o-EDDHA): fast action to correct iron chlorosis; Efficacy against iron chlorosis ([3]; highly calcareous soil, only one treatment application): efficient to solve iron chlorosis in highly calcareous conditions
O=C([O-])C(NCCNCc1ccccc1[O-])c1ccccc1[O-].[Fe+3] (stereo not shown) [Example 1/Fe^3+]	8.4 abc	32.8 a	34.8 a	8.8 ab	35.7 a	35.0 a		57.4 a μg Fe per plant	152 a μg Fe per plant	268 a μg Fe per plant	69.3 a μg Fe per plant	136 a μg Fe per plant	235 a μg Fe per plant	23.9	41.0	34.1	26.6	better recovery	Fe provided to plants compared with the other treatments ([2]; hydroponics, lower Fe application (5 μM)): significantly higher amounts of iron and faster; Dry weight of shoots (FIG. 2) [4]: efficient Fe chlorosis corrector
O=C([O-])C(NCCNC(C(=O)[O-])c1ccccc1[O-])c1ccc(O)cc1.[Fe+3] (stereo not shown) [o,p-EDDHA/Fe^3+]	8.1 abc	30.9 ab	32.2 a	10.4 a	33.1 a	32.9 a	completely regreened	43.0 ab μg Fe per plant	128 a μg Fe per plant	223 b μg Fe per plant	77.8 a μg Fe per plant	129 a μg Fe per plant	259 a μg Fe per plant	25.8	41.2	33.0	21.0	better recovery	Stability of the Fe3+ chelate [5]: lower stability
